Test [1] relates to Mycobacterium tuberculosis variant bovis BCG. The test is described as follows: Bactericidal activity against Mycobacterium bovis BCG ATCC 35734 assessed as reduction in colony forming unit at 8 times MIC measured after 21 days by time-kill assay. The note with it: time 21.0 day. The class given is functional, organism-based.
For test [2] the test system is unchanged. The test is described as follows: Bactericidal activity against Mycobacterium bovis BCG ATCC 35734 at 0.5 to 1 times MIC90 incubated for 5 days in presence of thiourea. Format: functional, organism-based. The conditions noted are these: time 5.0 day.
For test [3] the test system is unchanged. In words: Bactericidal activity against Mycobacterium bovis BCG ATCC 35734 assessed as reduction in colony forming unit at 0.5 to 1 times MIC90 incubated for 5 days. The class given is functional, organism-based. The note with it: time 5.0 day.
The test system is the same in test [4]. In words: Bactericidal activity against Mycobacterium bovis BCG ATCC 35734 assessed as fold reduction in viability at 4 times MIC measured over 14 days by time-kill assay. The class given is functional. The conditions noted are these: time 14 day.
Test [5] has as its system Cell membrane. In words: Induction of cell membrane depolarization in Mycobacterium bovis BCG ATCC 35734 at 4 times MIC after 8 hrs by DiOC2 dye based flourescence assay. The class given is functional, subcellular. The note with it: Mycobacterium tuberculosis variant bovis BCG.
For test [6], the system named is Mycobacterium tuberculosis variant bovis BCG. The test is described as follows: Bactericidal activity against Mycobacterium bovis BCG ATCC 35734 at 0.5 to 1 times MIC90 incubated for 5 days in presence of TEMPO. The class given is functional, organism-based. The note with it: time 5.0 day.
Test [7] has as its system Cell membrane. The test is described as follows: Induction of cell envelope stress in Mycobacterium bovis BCG ATCC 35734 expressing piniBAC RFP at 100 times MIC90 after 24 hrs by fluorescence analysis. The conditions noted are these: Mycobacterium tuberculosis variant bovis BCG. Format: functional, subcellular.
The subject of test [8] is Mycobacterium tuberculosis variant bovis BCG. In words: Bactericidal activity against Mycobacterium bovis BCG ATCC 35734 assessed as fold reduction in viability at 40 times MIC90 preincubated for 20 days under oxygen deprived condition followed by compound addition and measured after 5 days. Format: functional. The note with it: time 5 day.
For test [9] the test system is unchanged. In words: Antimycobacterial activity against Mycobacterium bovis BCG ATCC 35734 carrying katG loss-of-function mutant assessed fold reduction in MIC at 1 to 2 times of MIC90 incubated for 5 days. Format: functional. The conditions noted are these: time 5 day.
The test system is the same in test [10]. In words: Antimycobacterial activity against Mycobacterium bovis BCG ATCC 35734 incubated for 5 days by broth dilution method. The class given is functional. The conditions noted are these: ATCC 35734, 120 h, time 5 day. In general terms: Broth dilution looks for growth in wells or tubes with falling amounts of substance.
For test [11] the test system is unchanged. The test is described as follows: Bactericidal activity against Mycobacterium bovis BCG ATCC 35734 at 0.5 to 1 times MIC90 incubated for 5 days in presence of N-acetylcysteine. The note with it: time 5.0 day. The class given is functional, organism-based.
For test [12], the system named is Cell membrane. The test is described as follows: Induction of membrane permeabilization in Mycobacterium bovis BCG ATCC 35734 at 4 times MIC after 8 hrs by SYTO9 and PI staining based fluorescence assay. The class given is functional, subcellular. The note with it: Mycobacterium tuberculosis variant bovis BCG.
Test [13] concerns Mycobacterium tuberculosis variant bovis BCG. The test is described as follows: Induction of ROS generation in Mycobacterium bovis BCG ATCC 35734 after 90 mins by cellrox-green reagent based assay. The class given is functional, organism-based.
The test system is the same in test [14]. In words: Induction of ROS generation in Mycobacterium bovis BCG ATCC 35734 at 2 times of MIC90 measured upto 24 hrs by cellrox-green reagent based assay. The class given is functional, organism-based. The note with it: time hrs <=24.
The test system of test [15] is Mycobacterium tuberculosis H37Rv. In words: Activation of Mycobacterium tuberculosis NDH-2 overexpressed in mc24517 inverted membrane vesicles assessed as increase in NADH oxidation. Format: cell membranes. The conditions noted are these: Membrane vesicle, filed as activator.
In test [16] the test system is Mycobacterium tuberculosis variant bovis BCG. In words: Bactericidal activity against Mycobacterium bovis BCG ATCC 35734 assessed as reduction in colony forming count at 4 times MIC measured over 28 days by time-kill assay. Format: functional, organism-based. The conditions noted are these: time 28.0 day.
Test [17] has the same test system. The test is described as follows: Ratio of MIC for antimycobacterial activity against Mycobacterium bovis BCG ATCC 35734 in absence of glycerol to MIC for antimycobacterial activity against Mycobacterium bovis BCG ATCC 35734 in presence of glycerol. Format: functional.
Test [18] has the same test system. The test is described as follows: Induction of oxidative stress Mycobacterium bovis BCG-pfurA-RFP ATCC 35734 assessed as activation of pfurA after 24 hrs by fluorescence assay. Format: functional, organism-based.
Test [19] has the same test system. In words: Antimycobacterial activity against Mycobacterium bovis BCG ATCC 35734 carrying katG loss-of-function mutant assessed fold reduction in MIC at 1 to 2 times of MIC90 incubated for 5 days under solid agar medium. The class given is functional, organism-based. The note with it: time 5.0 day.
Test [20] shares this test system. The test is described as follows: Antimycobacterial activity against Mycobacterium bovis BCG ATCC 35734 carrying katG loss-of-function mutant assessed fold reduction in MIC at 1 to 2 times of MIC90 incubated for 5 days under liquid medium. Format: functional, organism-based. The note with it: time 5.0 day.
For test [21] the test system is unchanged. In words: Bactericidal activity against Mycobacterium bovis BCG ATCC 35734 incubated for 5 days by broth dilution method. Format: functional. The conditions noted are these: ATCC 35734, 120 h, time 5 day, read-out: MBC99.9.
For test [22] the test system is unchanged. The test is described as follows: Induction of ROS generation in Mycobacterium bovis BCG ATCC 35734 at <= 1 times of MIC90 after 90 mins by cellrox-green reagent based assay. Format: functional, organism-based.
Test [23] has the same test system. In words: Induction of oxidative stress Mycobacterium bovis BCG-pfurA-RFP ATCC 35734 assessed as activation of pfurA at 0.5 to 2 times MIC90 after 24 hrs by fluorescence assay. Format: functional, organism-based.
For test [24] the test system is unchanged. In words: Induction of ROS generation in Mycobacterium bovis BCG ATCC 35734 at 2 times of MIC90 after 90 mins by cellrox-green reagent based assay. The class given is functional, organism-based.

In brackets after ≈: the same amount, converted by molar mass. Activity calls are given as the source filed them. The rule behind the calls is not given here. A value given as a limit tells only on which side of the number the result lay.

What is called MIC50 is the lowest concentration that inhibits either 50% of growth or 50% of the strains tested, depending on the study. Read a low MIC50 as higher susceptibility. As usually defined, the MIC90 is an inhibitory concentration at the 90% level, which refers to growth in some studies and to a panel of isolates in others. Take `CCCCCCCCn1c2c([n+](CCCC)c1C)C(=O)c1ccccc1C2=O.[Br-]`: the result in test [1], in test [2], in [3], in test [6], in test [11] and in test [14] was Active. In addition, the outcome in [16], in test [19] and in test [20] was Active. In addition, the “fold change (FC)” value is 100000 in [4], 10 in [8], 2 in [9] and 4.7 in test [15]. In addition, the outcome in test [5], in test [7] and in [12] was inactive. The MIC50 in [10] came out at 0.15 µM. The same molecule showed an MIC90 in test [10] of 0.26 µM. In addition, the Activity result in test [13] and in [18] was “Dose-Dependent Effect” each time. The Ratio in [17] was under 2. The MBC in test [21] was 0.64 µM.

Take `CCCCCCCn1c2c([n+](CCCCC)c1C)C(=O)c1ccccc1C2=O.[Br-]`: the “fold change (FC)” value in test [4] is on record as 100000; in test [8], 10; in test [9], 2. Moreover, the outcome in test [5], in test [7] and in test [12] was inactive. In [10], this molecule gave an MIC50 of 0.16 µM. Besides, the MIC90 in test [10] was found to be 0.27 µM. In addition, the Activity entry in test [13] and in test [18] was “Dose-Dependent Effect” in each case. Besides, the outcome in [16] was Active. In addition, in test [17], the Ratio was under 2. The MBC in test [21] turned out to be 0.64 µM.

In [10], `CCCCCCCCn1c2c([n+](C3CCC4(CCCCC4)CC3)c1C)C(=O)c1ccccc1C2=O` yielded an MIC50 of 0.11 µM and an MIC90 of 0.2 µM. Moreover, the MBC in [21] was determined as 0.2 µM.

Regarding `CCCCCCn1c(C)nc2c1C(=O)c1ccccc1C2=O`, the result in test [22] and in test [23] was inactive. The molecule further had an MIC90 in [10] of 15 µM (≈ 4.45 µg/mL). In addition, in test [24], the result was Active.

As for `CCCCCCn1c2c([n+](CCCCCC)c1C)C(=O)c1ccccc1C2=O`, in test [10], the MIC50 was 0.11 µM and the MIC90 is 0.22 µM. Besides, the Ratio in test [17] is under 2. In addition, the MBC in test [21] came to 0.64 µM.

With `CCCCn1c2c([n+](C3CCC4(CCCCC4)CC3)c1C)C(=O)c1ccccc1C2=O.[Br-]`, the result in test [7] and in test [20] was inactive. In addition, the MIC50 in [10] was found to be 0.13 µM. Also, the MIC90 in [10] was determined as 0.3 µM. Moreover, the Activity result in test [13] and in [18] was “Dose-Dependent Effect” throughout. Moreover, the outcome in [14] and in [19] was Active. For the same molecule, the Ratio in [17] is under 2. For the same molecule, the MBC in test [21] was found to be 1.3 µM.

`CCCCCCn1c2c([n+](C3CCC4(CCCCC4)CC3)c1C)C(=O)c1ccccc1C2=O` registered an MIC90 in test [10] of 0.15 µM. In test [21], the MBC is 0.2 µM.

For `CCCCCCCCn1c(C)nc2c1C(=O)c1ccccc1C2=O`, the result in test [22] and in [23] was inactive. The MIC90 in test [10] is 11 µM (≈ 3.57 µg/mL). In test [24], the outcome was Active.

In test [10], `CCCCCCCC[n+]1c2c(n(CC(C)C)c1C)C(=O)c1ccccc1C2=O` had an MIC50 of 0.14 µM and an MIC90 of 0.26 µM. Moreover, the Ratio in test [17] was under 2.

In test [10], `CCCCCC[n+]1c2c(n(CC(C)C)c1C)C(=O)c1ccccc1C2=O` returned an MIC50 of 0.18 µM and an MIC90 of 0.3 µM. Further, the Ratio in [17] was under 2.

In the case of `CCCC[n+]1c2c(n(CC(C)C)c1C)C(=O)c1ccccc1C2=O`, the MIC90 in test [10] amounted to 1.5 µM.

As to `CCCCCCCCCCn1c(C)nc2c1C(=O)c1ccccc1C2=O`, the MIC90 in test [10] was found to be 47 µM (≈ 16.6 µg/mL).

Consider `Cc1n(C)c2c([n+]1C1CC1)C(=O)c1ccccc1C2=O`, for which the MIC90 in [10] worked out at 34 µM.
